From patent publication US11058688B2, “Imidazopiperazine inhibitors of transcription activating proteins” (Board of Regents, The University of Texas System, priority 2018, dated 2021)

Experiments:
[1] = molecular target: GST-CBP(1081-1197) bromodomain (Homo sapiens (Human), UniProt Q92793); assay: CBP AlphaScreen Assay; conditions: binding to biotin-H4(1-21) Ac-K5/8/12/16 peptide
Method in brief: (§1)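 IC50 values derived by variable-slope dose-response fit between negative and DMSO control signals. AlphaScreen signal reports bromodomain association with an H4(1-21) peptide acetylated at K5, K8, K12 and K16.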

BRD4(49-170) bromodomain = BRD4(49-170) bromodomain (Homo sapiens (Human), UniProt O60885); assay: BRD4 AlphaScreen Assay; conditions: binding to biotin-H4(1-21) Ac-K5/8/12/16 peptide
Method in brief: as §1

Sequence of GST-CBP(1081-1197) bromodomain (Q92793 1081-1197): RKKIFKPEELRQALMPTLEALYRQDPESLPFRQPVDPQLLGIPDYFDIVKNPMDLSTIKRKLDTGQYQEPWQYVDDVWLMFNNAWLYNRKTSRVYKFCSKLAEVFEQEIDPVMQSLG

Row | Structure (SMILES) | IC50 [1] [nM] | IC50 (BRD4(49-170) bromodomain) [nM]
1 | CNC(=O)N1CCn2c(C3CCC(F)(F)C3)nc(-c3cccc4nc(-c5cnn(C)c5)c(C(F)F)cc34)c2C1 (stereo not drawn) [Example 61, 3-(3,3-difluorocyclopentyl)-1-(3-(difluoromethyl)-2-(1-methyl-1H-pyrazol-4-yl)quinolin-5-yl)-N-methyl-5,6-dihydroimidazo[1,5-a]pyrazine-7(8H)-carboxamide] | 25 | 13900
2 | CC(=O)N1CCn2c(C3CC3)nc(-c3ccc4c(c3)c(-c3c(C)noc3C)nn4C)c2C1 [Example 30, 1-(3-Cyclopropyl-1-(3-(3,5-dimethylisoxazol-4-yl)-1-methyl-1H-indazol-5-yl)-5,6-dihydroimidazo[1,5-a]pyrazin-7(8H)-yl)ethan-1-one] | 1180 | > 25000
3 | CNC(=O)N1CCn2c(C3CC3)nc(N3CCCc4nc(-c5cnn(C)c5)c(C(F)(F)F)cc43)c2C1 [Example 33, 3-Cyclopropyl-N-methyl-1-(6-(1-methyl-1H-pyrazol-4-yl)-7-(trifluoromethyl)-3,4-dihydro-1,5-naphthyridin-1(2H)-yl)-5,6-dihydroimidazo[1,5-a]pyrazine-7(8H)-carboxamide] | 40 | > 10000
4 | CNC(=O)N1CCn2c(C3CCOCC3)nc(-c3cccc4nc(-c5cnn(C)c5)c(C(F)F)cc34)c2C1 [Example 123, 1-(3-(difluoromethyl)-2-(1-methyl-1H-pyrazol-4-yl)quinolin-5-yl)-N-methyl-3-(tetrahydro-2H-pyran-4-yl)-5,6-dihydroimidazo[1,5-a]pyrazine-7(8H)-carboxamide] | 19 | > 25000
5 | CNC(=O)N1CCn2c(C3CCNCC3)nc(-c3ccc4c(c3)c(-c3cnn(C)c3)nn4C)c2C1 [Example 52, N-methyl-1-(1-methyl-3-(1-methyl-1H-pyrazol-4-yl)-1H-indazol-5-yl)-3-(piperidin-4-yl)-5,6-dihydroimidazo[1,5-a]pyrazine-7(8H)-carboxamide] | 20 | > 10000
6 | CNC(=O)N1CCn2c(C3CC3)nc(-c3c(F)ccc4cc(-c5cnc(C)s5)ncc34)c2C1 [Example 22, 3-Cyclopropyl-1-(7-fluoro-3-(2-methylthiazol-5-yl)isoquinolin-8-yl)-N-methyl-5,6-dihydroimidazo[1,5-a]pyrazine-7(8H)-carboxamide] | 3 | 7060
7 | CNC(=O)N1Cc2c(-c3cccc4cc(-c5cnn(C)c5)ncc34)nc(C3CC3)n2CC1C (stereo not drawn) [Example 125, 3-cyclopropyl-N,6-dimethyl-1-(3-(1-methyl-1H-pyrazol-4-yl)isoquinolin-8-yl)-5,6-dihydroimidazo[1,5-a]pyrazine-7(8H)-carboxamide] | 19 | > 10000
8 | CNC(=O)N1CCn2c(C3CC(F)(F)C3)nc(-c3cccc4cc(-c5cn(C)nc5C)ncc34)c2C1 [Example 71, 3-(3,3-difluorocyclobutyl)-1-(3-(1,3-dimethyl-1H-pyrazol-4-yl)isoquinolin-8-yl)-N-methyl-5,6-dihydroimidazo[1,5-a]pyrazine-7(8H)-carboxamide] | 38 | 13400
9 | CNC(=O)c1nc(-c2ccc3c(c2)c(-c2cnn(C)c2)nn3C)c2n1CCN(C(C)=O)C2 [Example 31, 7-Acetyl-N-methyl-1-(1-methyl-3-(1-methyl-1H-pyrazol-4-yl)-1H-indazol-5-yl)-5,6,7,8-tetrahydroimidazo[1,5-a]pyrazine-3-carboxamide] | 611 | 7470
10 | CC(=O)N1CCn2c(C3CCS(=O)(=O)CC3)nc(-c3ccc4c(c3)c(-c3cnn(C)c3)nn4C)c2C1 [Example 14, 1-[3-(1,1-Dioxothian-4-yl)-1-[1-methyl-3-(1-methylpyrazol-4-yl)indazol-5-yl]-6,8-dihydro-5H-imidazo[1,5-a]pyrazin-7-yl]ethanone] | 286 | > 25000
11 | CNC(=O)N1CCn2c(C3CCN(C(C)=O)CC3)nc(-c3ccc4c(c3)c(-c3cnn(C)c3)nn4C)c2C1 [Example 55, 3-(1-acetylpiperidin-4-yl)-N-methyl-1-(1-methyl-3-(1-methyl-1H-pyrazol-4-yl)-1H-indazol-5-yl)-5,6-dihydroimidazo[1,5-a]pyrazine-7(8H)-carboxamide] | 18 | > 10000
12 | CC(=O)N1CCn2c(C3CCC3)nc(-c3ccc4c(c3)c(-c3cnn(C)c3)nn4C)c2C1 [Example 46, 1-(3-cyclobutyl-1-(1-methyl-3-(1-methyl-1H-pyrazol-4-yl)-1H-indazol-5-yl)-5,6-dihydroimidazo[1,5-a]pyrazin-7(8H)-yl)ethan-1-one] | 52 | > 10000
13 | CNC(=O)N1Cc2c(-c3cccc4cc(-c5cnn(C)c5)ncc34)nc(C3CC3)n2C(C)C1 (stereo not drawn) [Example 126, 3-cyclopropyl-N,5-dimethyl-1-(3-(1-methyl-1H-pyrazol-4-yl)isoquinolin-8-yl)-5,6-dihydroimidazo[1,5-a]pyrazine-7(8H)-carboxamide] | 39 | 17100
14 | CNC(=O)N1CCn2c(C3CCC(F)(F)CC3)nc(-c3c(F)ccc4cc(C5CCOCC5)ncc34)c2C1 [Example 90, 3-(4,4-difluorocyclohexyl)-1-(7-fluoro-3-(tetrahydro-2H-pyran-4-yl)isoquinolin-8-yl)-N-methyl-5,6-dihydroimidazo[1,5-a]pyrazine-7(8H)-carboxamide] | 4 | 10200
15 | CC(=O)N1CCn2c(C3CC3)nc(-c3ccc4c(c(-c5cnn(C)c5)nn4C)c3F)c2C1 [Example 25, 1-(3-cyclopropyl-1-(4-fluoro-1-methyl-3-(1-methyl-1H-pyrazol-4-yl)-1H-indazol-5-yl)-5,6-dihydroimidazo[1,5-a]pyrazin-7(8H)-yl)ethan-1-one] | 57 | 15900
16 | CC(=O)N1CCn2c(C3CC3)nc(-c3ccc4c(c3)c(-c3cn(C)nc3C)nn4C)c2C1 [Example 106, 1-(3-cyclopropyl-1-(3-(1,3-dimethyl-1H-pyrazol-4-yl)-1methyl-1H-indazol-5-yl)-5,6-dihydroimidazo[1,5-a]pyrazin-7(8H)-yl)ethan-1-one] | 286 | > 25000
17 | CC(=O)N1CCn2c(C3CC3)nc(-c3cnc4c(c3)c(-c3cnn(C)c3)nn4C)c2C1 [Example 26, 1-(3-cyclopropyl-1-(1-methyl-3-(1-methyl-1H-pyrazol-4-yl)-1H-pyrazolo[3,4-b]pyridin-5-yl)-5,6-dihydroimidazo[1,5-a]pyrazin-7(8H)-yl)ethan-1-one] | 181 | > 25000
18 | CNC(=O)N1CCn2c(C3CCC(F)(F)CC3)nc(-c3cccc4cc(-c5ccn(C)n5)ncc34)c2C1 [Example 80, 3-(4,4-difluorocyclohexyl)-N-methyl-1-(3-(1-methyl-1H-pyrazol-3-yl)isoquinolin-8-yl)-5,6-dihydroimidazo[1,5-a]pyrazine-7(8H)-carboxamide] | 2 | 11900
19 | CNC(=O)N1CCn2c(C3CC3)nc(-c3cccc4cc(-c5cn(C)nc5C)ncc34)c2C1 [Example 69, 3-cyclopropyl-1-(3-(1,3-dimethyl-1H-pyrazol-4-yl)isoquinolin-8-yl)-N-methyl-5,6-dihydroimidazo[1,5-a]pyrazine-7(8H)-carboxamide] | 17 | 10100
20 | CNC(=O)N1CCn2c(C3CC3)nc(-c3cccc4nc(-c5cn(C)nc5C)c(C#N)cc34)c2C1 [Example 98, 1-(3-cyano-2-(1,3-dimethyl-1H-pyrazol-4-yl)quinolin-5-yl)-3-cyclopropyl-N-methyl-5,6-dihydroimidazo[1,5-a]pyrazine-7(8H)-carboxamide] | 25 | 9580
21 | CC(=O)N1CCn2c(C3CCOC3)nc(-c3ccc4c(c3)c(-c3cnn(C)c3)nn4C)c2C1 (stereo not drawn) [Example 45, 1-(1-(1-methyl-3-(1-methyl-1H-pyrazol-4-yl)-1H-indazol-5-yl)-3-(tetrahydrofuran-3-yl)-5,6-dihydroimidazo[1,5-a]pyrazin-7(8H)-yl)ethan-1-one] | 124 | 6290
22 | CC(=O)N1CCn2c(C3CC3)nc(N3CCCc4cc(-c5cnn(C6CCC6)c5)ccc43)c2C1 [Example 119, 1-(1-(6-(1-cyclobutyl-1H-pyrazol-4-yl)-3,4-dihydroquinolin-1(2H)-yl)-3-cyclopropyl-5,6-dihydroimidazo[1,5-a]pyrazin-7(8H)-yl)ethan-1-one] | 313 | > 25000
23 | CC(=O)N1CCn2c(C3CCNCC3)nc(-c3ccc4c(c3)c(-c3cnn(C)c3)nn4C)c2C1 [Example 51, 1-(1-(1-methyl-3-(1-methyl-1H-pyrazol-4-yl)-1H-indazol-5-yl)-3-(piperidin-4-yl)-5,6-dihydroimidazo[1,5-a]pyrazin-7(8H)-yl)ethan-1-one] | 149 | > 10000
24 | CNC(=O)N1CCn2c(C3CC3)nc(-c3cccc4nc(-c5cnn(C)c5)c(C(F)F)cc34)c2C1 [Example 34, 3-Cyclopropyl-1-(3-(difluoromethyl)-2-(1-methyl-1H-pyrazol-4-yl)quinolin-5-yl)-N-methyl-5,6-dihydroimidazo[1,5-a]pyrazine-7(8H)-carboxamide] | 37 | 17300
25 | CNC(=O)N1CCn2c(C3CC3)nc(-c3c[nH]c4cc(-c5cnn(C)c5)ncc34)c2C1 [Example 38, 3-Cyclopropyl-N-methyl-1-(6-(1-methyl-1H-pyrazol-4-yl)-1H-pyrrolo[3,2-c]pyridin-3-yl)-5,6-dihydroimidazo[1,5-a]pyrazine-7(8H)-carboxamide] | 32 | 19800
26 | CNC(=O)N1CCn2c(C3CC3)nc(-c3csc4cc(-c5cnn(C)c5)ncc34)c2C1 [Example 39, 3-Cyclopropyl-N-methyl-1-(6-(1-methyl-1H-pyrazol-4-yl)thieno[3,2-c]pyridin-3-yl)-5,6-dihydroimidazo[1,5-a]pyrazine-7(8H)-carboxamide] | 33 | 14800
27 | CC(=O)N1CCn2c(C3CC3)nc(-c3ccc4c(c3)c(-c3cnn(C)c3)nn4C)c2C1 [Example 44, 1-(3-cyclopropyl-1-(1-methyl-3-(1-methyl-1H-pyrazol-4-yl)-1H-indazol-5-yl)-5,6-dihydroimidazo[1,5-a]pyrazin-7(8H)-yl)ethan-1-one] | 47 | 12100
